Source: US20160095865A1, “APPLICATION OF ENROFLOXACIN SALT IN PREPARATION OF ORAL PREPARATION FOR PIGS” (GUANGZHOU INSIGHTER BIOTECHNOLOGY CO., LTD., priority 2013, published 2016)
Where a name gives a salt, the structure may show the parent alone.

Legend:
[1] = test system: sensitive bacteria; details: overwhelming majority of strains of sensitive bacteria; cited from earlier work
[2] = test system: duroc-landrace-yorkshire hybrid pigs; assay: Influence of enrofloxacin base, sodium salt and hydrochloride on palatability of pig feed (Embodiment 2); type: in vivo; details: compared with blank control group
Description: Enrofloxacin base, enrofloxacin sodium and enrofloxacin hydrochloride were respectively added in feed in each group. All the test pigs were synchronously fasted for 12 h before testing. The test pigs in each group were respectively subjected to free feed intake of feed containing enrofloxacin in different forms after the 12 h fast. […] Feed consumption of different test groups was subjected to statistics and the influence of different forms of the enrofloxacin added in the feed on the feed intake of the pigs was evaluated. The pure feed which was not added with the enrofloxacin or the salt thereof was taken as control.

[3] = test system: pathogenic escherichia coli SGD strain; assay: Protection against escherichia coli artificial (challenge) infection in weaned piglets (Embodiment 9); type: in vivo, pigs; details: for Death rate: challenged control 60; for Incidence rate (%, calculated by diarrhea): challenged control 100
Description: The 33-day-old pigs were intramuscularly injected with pathogenic escherichia coli, the diarrhea and deaths of the pigs were observed, continuous observation was performed for one week, the onset and deaths were subjected to statistics, and the protection effects of the enrofloxacin in different forms against the pathogenic escherichia coli in the artificial infection were compared. Pure feed which was not added with the enrofloxacin in any form was taken as a control group, wherein one portion of pigs in the control group were intramuscularly injected with the pathogenic escherichia coli and was taken as the control group without administration but with challenge (the fifth group), and the remainder were not intramuscularly injected with the pathogenic escherichia coli and was taken as the control group without administration and without challenge (the sixth group).

[4] = Pharmacokinetic research in pigs, plasma concentration by HPLC (Embodiment 8); type: in vivo; details: piglets
Description: Jugular venous blood collection was performed at 30 min, 1 h, 2 h, 4 h, 8 h, 12 h and 24 h after administration. Plasma was separated, the concentration of the enrofloxacin in the plasma in the different test pigs after administration was determined by high-performance liquid chromatography respectively, and whether the difference in the concentration of the enrofloxacin in the plasma in each test group after administration was significant or not and whether the elimination rule of the enrofloxacin in blood was consistent or not was subjected to statistical analysis.

[5] = 100 ppm equivalent fed twice daily through a gastric tube according to feed intake, challenge 2.0 ×10^7 CFU/pig
[6] = 100 ppm in feed, challenge 2.0 ×10^7 CFU/pig i.m., one week

CCN1CCN(c2cc3c(cc2F)c(=O)c(C(=O)O)cn3C2CC2)CC1 [enrofloxacin base, enrofloxacin]
MIC [1]: lower than 1 ug/ml
Decline in feed intake ([2]; 5 ppm in feed): 47.2%
Decline in feed intake ([2]; 25 ppm in feed): 74.2%
Decline in feed intake ([2]; 100 ppm in feed): 93.3%
Death rate [3, 5]: 0%
Incidence rate (%, calculated by diarrhea) [3, 5]: 0%

CCN1CCN(c2cc3c(cc2F)c(=O)c(C(=O)O)cn3C2CC2)CC1 [enrofloxacin hydrochloride]
Decline in feed intake ([2]; 5 ppm in feed, hydrochloride): 49.5%
Decline in feed intake ([2]; 25 ppm in feed, hydrochloride): 73.4%
Decline in feed intake ([2]; 100 ppm in feed, hydrochloride): 93.7%

CCN1CCN(c2cc3c(cc2F)c(=O)c(C(=O)[O-])cn3C2CC2)CC1.[Ag+] [enrofloxacin silver]
Death rate [3, 6]: 0%
Incidence rate (%, calculated by diarrhea) [3, 6]: 0%

CCN1CCN(c2cc3c(cc2F)c(=O)c(C(=O)O)cn3C2CC2)CC1 [enrofloxacin sodium]
Decline in feed intake ([2]; 5 ppm in feed): 50.8%
Decline in feed intake ([2]; 25 ppm in feed): 73.1%
Decline in feed intake ([2]; 100 ppm in feed): 94.1%

CCN1CCN(c2cc3c(cc2F)c(=O)c(C(=O)[O-])cn3C2CC2)CC1.CCN1CCN(c2cc3c(cc2F)c(=O)c(C(=O)[O-])cn3C2CC2)CC1.[Cu+2] [enrofloxacin copper]
Plasma concentration (total of enrofloxacin and ciprofloxacin) ([4]; 30 min after 10 mg/kg body weight by gastric tube): 1.417 ± 0.169^A ug/ml
Plasma concentration (total of enrofloxacin and ciprofloxacin) ([4]; 1 h after 10 mg/kg body weight by gastric tube): 2.121 ± 0.198^B ug/ml
Plasma concentration (total of enrofloxacin and ciprofloxacin) ([4]; 2 h after 10 mg/kg body weight by gastric tube): 5.187 ± 0.558^C ug/ml
Plasma concentration (total of enrofloxacin and ciprofloxacin) ([4]; 4 h after 10 mg/kg body weight by gastric tube): 5.465 ± 0.529^D ug/ml
Plasma concentration (total of enrofloxacin and ciprofloxacin) ([4]; 8 h after 10 mg/kg body weight by gastric tube): 2.986 ± 0.234^E ug/ml
Plasma concentration (total of enrofloxacin and ciprofloxacin) ([4]; 12 h after 10 mg/kg body weight by gastric tube): 1.785 ± 0.215^F ug/ml
Plasma concentration (total of enrofloxacin and ciprofloxacin) ([4]; 24 h after 10 mg/kg body weight by gastric tube): 0.294 ± 0.044^G ug/ml
Death rate [3, 6]: 0%
Incidence rate (%, calculated by diarrhea) [3, 6]: 0%

CCN1CCN(c2cc3c(cc2F)c(=O)c(C(=O)[O-])cn3C2CC2)CC1.CCN1CCN(c2cc3c(cc2F)c(=O)c(C(=O)[O-])cn3C2CC2)CC1.[Zn+2] [enrofloxacin zinc]
Death rate [3, 6]: 0%
Incidence rate (%, calculated by diarrhea) [3, 6]: 0%
